What all share (format): binding
Settings in all cases: single dose, Dose = 10 µM

One test deals with T1, STARD5 (Homo sapiens, UniProt Q9NSY2).
T1 construct: STARD5(6-213); host or cells: E. coli BL21(DE3)
T1 sequence (Q9NSY2 6-213): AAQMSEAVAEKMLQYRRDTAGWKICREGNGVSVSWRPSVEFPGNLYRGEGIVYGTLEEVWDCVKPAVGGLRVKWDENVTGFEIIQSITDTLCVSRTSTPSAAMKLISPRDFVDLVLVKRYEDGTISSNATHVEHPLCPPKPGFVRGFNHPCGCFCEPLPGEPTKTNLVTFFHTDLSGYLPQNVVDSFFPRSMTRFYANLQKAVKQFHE
The test can be described thus: Differential scanning fluorimetry (DSF), STARD5. The source says: (§1) Protein expression constructs
(§2) Human ASTER domains of Aster-A(359-547), -B(364-552) and -C(318-504) were subcloned into a pGEX-6p-2rbs vector, thus introducing the cloning artifact ‘GPLGS’.3 The pGEX-6P-1-GST-OSBP(377- […]
(§3) a gift from James H. Hurley (University of California).4 The pHIS_2His6_Thrombin_STARD4(2-205;C75S) plasmid was a gift from Young Jun Im (Chonnam National University).5 STARD5A was a gift from Nicola Burgess-Brown (Addgene plasmid #42392; http://n2t.net/addgene:42392; […]
(§4) Protein expression and purification […]
(§5) vectors including an N-terminal PreScission-cleavable glutathione S-transferase (GST)-tag were expressed in Escherichia coli (E. coli) OverExpress C41 in Terrific Broth (TB) medium for 16 h at 18 °C after the induction with 0.1 mM isopropyl β-D-1-thiogalactopyranoside (IPTG). Cells were harvested at 3500 × g for 15 minutes and lysed by sonication in buffer containing 50 mM HEPES pH 7.5, 300 mM NaCl, 10 %v/v glycerol, 5 mM dithiothreitol (DTT), 0.1 %v/v Triton X-100 and protease inhibitor mix HP plus (Serva). The lysate was purified by affinity chromatography on a GSTrap FF column (Cytiva) using an ÄKTA Start (Cytiva) in buffer containing 50 mM HEPES pH 7.5, 300 mM NaCl, 10 %v/v glycerol, 5 mM DTT and 0.01 %v/v Triton X-100. The GST-tag was cleaved overnight on the column at 4 °C. The Aster sterol binding domains were further purified by size-exclusion chromatography (SEC) on a HiLoad 16/600 Superdex 75 pg (Cytiva) in buffer containing 20 mM HEPES pH 7.5, 300 mM NaCl, 10 %v/v […]
(§6) STARD5(6-213) harboring an N-terminal His6-Tag were expressed in E. coli BL21(DE3) in Luria-Bertani Broth (LB) medium for approximately 16 h at 18 °C after induction with 0.15 mM IPTG. Cells were harvested at 3500 × g for 15 minutes and lysed by sonication in buffer containing 50 mM HEPES pH 7.5, 150 mM NaCl, 5 %v/v glycerol, 5 mM DTT, 0.1 %v/v Triton X -100 and ethylenediaminetetraacetic acid (EDTA)-free protease inhibitor cocktail (Sigma-Aldrich). The cleared lysate was purified by affinity chromatography on a Ni-NTA Superflow Cartridge (Qiagen) using an ÄKTA Start (Cytiva) in buffer containing 50 mM HEPES pH 7.5, 150 mM NaCl, 5 %v/v glycerol, 5 mM DTT. START domains were eluted by using elution buffer containing 50 mM HEPES pH 7.5, 150 mM NaCl, 5 %v/v glycerol, 5 mM DTT and 500 mM imidazole. Proteins were further purified by SEC on a HiLoad 16/600 Superdex 75 pg (Cytiva) in buffer containing 20 mM HEPES pH 7.5, 150 mM NaCl, 5 %v/v glycerol and 2 mM DTT.
(§7) The ORP domain of human OSBP(377-807) in the pGEX-6p-1 vector with an N-terminal PreScission-cleavable GST-tag was expressed in E. coli OverExpress C41 in LB medium for 16 h at 18 °C after induction with 0.1 mM IPTG. Cells were harvested at 3500 × g for 15 minutes and lysed by sonication in buffer containing 20 mM HEPES pH 7.5, 300 mM NaCl, 10 %v/v glycerol, 5 mM DTT, 0.1 %v/v Triton X-100 and EDTA-free protease inhibitor cocktail (Sigma-Aldrich). The cleared lysate was purified by affinity chromatography on a GSTrap HF column (Cytiva) using an ÄKTA Start (Cytiva) in buffer containing 20 mM HEPES pH 7.5, 300 mM NaCl, 10 %v/v glycerol, 5 mM DTT. OSBP(377 -807) was eluted by using elution buffer containing 20 mM HEPES pH 7.5, 300 mM NaCl, 10 %v/v glycerol, 5 mM DTT and 10 mM reduced glutathione. Proteins were further purified by SEC on a HiLoad 16/600 Superdex 75 pg (Cytiva) using an ÄKTA Explorer (Cytiva) in buffer containing 20 mM HEPES pH 7.5, 150 mM NaCl, 10 %v/v glycerol and 2 mM DTT.
(§8) The ORP domains of human ORP1(534-950) in pET24b(+) and ORP2(49-480) in the pET24b(+) vector including an N-terminal His6-Tag were expressed in E. coli BL21(DE3) in TB medium for approximately 16 h at 18 °C after induction with 0.1 mM IPTG. Cells were collected at 3500 × g for 15 minutes and lysed by sonification in buffer containing 10 mM Tris-HCl pH 8, 300 mM NaCl, 5 % glycerol, 2 mM DTT, 0.1 % Triton X-100 and EDTA-free protease inhibitor cocktail (Sigma-Aldrich). The cleared […]

Another test deals with T2, STARD4 (Homo sapiens, UniProt Q96DR4, C75S).
T2 construct: STARD4(2-205; C75S); made in house; host or cells: E. coli BL21(DE3)
T2 sequence (Q96DR4 2-205 C75S): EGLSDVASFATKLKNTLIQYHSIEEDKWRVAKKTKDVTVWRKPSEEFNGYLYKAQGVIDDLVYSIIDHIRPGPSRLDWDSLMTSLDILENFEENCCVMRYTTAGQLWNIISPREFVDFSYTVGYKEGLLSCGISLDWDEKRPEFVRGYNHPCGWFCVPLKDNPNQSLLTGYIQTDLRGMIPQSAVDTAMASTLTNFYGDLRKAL
Nature of the test: Differential scanning fluorimetry (DSF), STARD4.
Source text: as §1, §2, §3, §4, §5, §6, §7, §8

For the next test, the target named is T3, STARD3 (Homo sapiens, UniProt Q14849).
T3 construct: STARD3(216-444); made in house; host or cells: E. coli BL21(DE3)
T3 sequence (Q14849 216-444): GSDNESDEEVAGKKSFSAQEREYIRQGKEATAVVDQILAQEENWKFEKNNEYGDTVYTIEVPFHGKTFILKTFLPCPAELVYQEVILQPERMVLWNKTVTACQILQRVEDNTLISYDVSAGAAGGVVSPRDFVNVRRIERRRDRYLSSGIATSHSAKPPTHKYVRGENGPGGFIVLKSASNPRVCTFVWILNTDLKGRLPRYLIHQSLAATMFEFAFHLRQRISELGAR
The test can be described thus: Differential scanning fluorimetry (DSF), STARD3.
Source text: as §1, §2, §3, §4, §5, §6, §7, §8

`Cc1ccc2c(c1)C(=O)[C@]1(CC[C@@H]3C[C@H](O)CC[C@@]31C)N2` [Compound 13]: the ΔTm at 10 µM at STARD5 was 0.143 °C; on STARD4, 1.1 °C; on STARD3, -0.0638 °C.

(Values after PMC11758220, “Identification of a Privileged Scaffold for Inhibition of Sterol Transport Proteins through the Synthesis and Ring Distortion of Diverse, Pseudo-Natural Products” (ACS Central Science, 2025).)
